Among the data in patent publication US11999732B2, “P2X3 receptor antagonists” (RECORDATI INDUSTRIA CHIMICA E FARMACEUTICA SPA, priority 2018, dated 2024) are IC50 values, retold here.

This assay deals with T1, human P2X3 receptor (Homo sapiens, UniProt P56373).
T1 construct: expressed in transfected cells; host or cells: CHO-K1
T1 sequence (P56373 1-397): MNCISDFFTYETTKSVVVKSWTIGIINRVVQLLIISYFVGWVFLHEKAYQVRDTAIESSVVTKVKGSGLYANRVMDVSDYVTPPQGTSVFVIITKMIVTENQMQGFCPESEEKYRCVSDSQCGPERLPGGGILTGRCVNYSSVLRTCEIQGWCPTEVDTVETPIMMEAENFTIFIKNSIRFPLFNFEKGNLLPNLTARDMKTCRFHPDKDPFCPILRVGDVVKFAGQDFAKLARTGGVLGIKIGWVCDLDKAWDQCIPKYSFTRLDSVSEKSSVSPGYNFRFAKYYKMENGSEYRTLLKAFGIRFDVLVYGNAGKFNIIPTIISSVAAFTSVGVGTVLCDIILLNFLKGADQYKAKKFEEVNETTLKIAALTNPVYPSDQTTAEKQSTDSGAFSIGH
Description: Calcium luminescence (photoprotein) assay in CHO-K1 cells co-expressing human P2X3 receptor, α,β-Met-ATP stimulation, FLEXSTATION readout. It counts as cell-based. To be noted: Table 9; human P2X3 receptor antagonist activity, CHO-K1 cells, α,β-Met-ATP; read-out: h-P2X3 IC50. Summed up:
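CHO-K1 cells co-expressing human P2X3 and a Ca2+-sensitive photoprotein, loaded with coelenterazine in Tyrode's buffer (pH 7.4) for 4 h at 37 °C. Compounds injected 4 min before α,β-Met-ATP stimulation; luminescence recorded, IC50 and pseudo-Hill slope from nonlinear regression of inhibition curves.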

Turning to `COc1ccc(Cn2c(=O)n3c(C(C)(C)C)nnc3c3ncc(N)cc32)cc1` [Example 176, 8-amino-3-tert-butyl-6-(4-methoxybenzyl)pyrido[2,3-e][1,2,4]triazolo[4,3-c]pyrimidin-5(6H)-one], the IC50 amounted to 2.57 µM.
Turning to `O=c1n(Cc2ccc(Cl)cc2)c2cc(N3CCOCC3)cnc2c2nnc(CC3CCOCC3)n12` [Example 186, 6-(4-chlorobenzyl)-8-(morpholin-4-yl)-3-(tetrahydro-2H-pyran-4-ylmethyl)pyrido[2,3-e][1,2,4]triazolo[4,3-c]pyrimidin-5(6H)-one], the IC50 was 0.289 µM.
The result for `O=c1n(Cc2ccc(Cl)cc2)c2cc(N3CCOCC3)cnc2c2nnc(COC3CCOCC3)n12` [Example 188, 6-(4-chlorobenzyl)-8-(morpholin-4-yl)-3-[(tetrahydro-2H-pyran-4-yloxy)methyl]pyrido[2,3-e][1,2,4]triazolo[4,3-c]pyrimidin-5(6H)-one] reads 0.528 µM.
